{
  "source": "patent US20100298141A1",
  "about": "“SUBSTITUTED PYRIDINE N-OXIDE HERBICIDES” (E. I. DU PONT DE NEMOURS AND COMPANY, priority 2007, published 2010)",
  "key": {"[1]": {"system": "winter wheat (TRZAW)", "assay": "Test H preemergence mixtures of compound 2 with crop safeners", "format": "in vivo, Triticum aestivum", "design": "key to TRZAW Obsd. (observed effect): observed % effect, visually evaluated vs controls", "description": "(§1) Seeds of test plants consisting of winter wheat (TRZAW, Triticum aestivum), corn (ZEAMD, Zea mays cv. ‘Pioneer 33G26’), giant foxtail (SETFA, Setaria faberi), and Italian ryegrass (LOLMU, Lolium multiflorum) were planted into a blend of loam soil and sand and treated preemergence with a directed soil spray using test chemicals formulated in a non-phytotoxic solvent mixture that included a surfactant. Seeds of small-seeded species were planted about 1 cm deep; larger seeds were planted about 2.5 cm deep. […] Balanced fertilizer was applied through the watering system. Treatments consisted of Compound 2 and the above mentioned safeners alone and in combination using a spray volume of 457 L/ha. Each treatment was replicated four times. Treated plants and controls were maintained in a greenhouse for 14 to 21 days, after which time all species were compared to controls and visually evaluated. […] A dash (-) response means no test result. Colby's Equation was used to determine the herbicidal effects expected from the mixtures. Colby's Equation (Colby, S. […] wherein • Pa+b is the percentage effect of the mixture expected from additive contribution of the individual components, • Pa is the observed percentage effect of the first active ingredient at the same use rate as in the mixture, and • Pb is the observed percentage effect of the second active ingredient at the same use rate as in the mixture."}, "[2]": {"system": "corn (ZEAMD)", "assay": "Test H preemergence mixtures of compound 2 with crop safeners", "format": "in vivo, Zea mays cv. ‘Pioneer 33G26’", "design": "key to ZEAMD Obsd. (observed effect): observed % effect, visually evaluated vs controls", "description": "as §1"}, "[3]": {"system": "corn (ZEAMD)", "assay": "Test I preemergence mixtures of compound 2 with crop safeners", "format": "in vivo, Zea mays cv. ‘Pioneer 33G26’", "details": "alone", "description": "(§2) Seeds of test plants consisting of winter wheat (TRZAW, Triticum aestivum), corn (ZEAMD, Zea mays cv. ‘Pioneer 33G26’), wild oat (AVEFA, Avena fatua), and Italian ryegrass (LOLMU, Lolium multiflorum) were planted into a blend of loam soil and sand and treated preemergence with a directed soil spray using test chemicals formulated in a non-phytotoxic solvent mixture that included a surfactant. Seeds of small-seeded species were planted about 1 cm deep; larger seeds were planted about 2.5 cm deep. […] Balanced fertilizer was applied through the watering system. Treatments consisted of Compound 2 and the above mentioned safeners alone and in combination using a spray volume of 457 L/ha. Each treatment was replicated four times. Treated plants and controls were maintained in a greenhouse for 14 to 21 days, after which time all species were compared to controls and visually evaluated. […] A dash (-) response means no test result. Colby's Equation was used to determine the herbicidal effects expected from the mixtures. Colby's Equation (Colby, S. […] Pa+b=Pa+Pb−(PaPb/100) wherein • Pa+b is the percentage effect of the mixture expected from additive contribution of the individual components, • Pa is the observed percentage effect of the first active ingredient at the same use rate as in the mixture, and • Pb is the observed percentage effect of the second active ingredient at the same use rate as in the mixture."}, "[4]": {"system": "winter wheat (TRZAW)", "assay": "Test J preemergence mixtures of Compound 2 with crop safeners", "format": "in vivo, Triticum aestivum", "design": "key to TRZAW Obsd. (observed effect): observed % herbicidal effect", "description": "as §1, with “aestivum) and” for “aestivum),”, “33G26’)” for “33G26’), giant foxtail (SETFA, Setaria faberi), and Italian ryegrass (LOLMU, Lolium multiflorum)”, “surfactant.” for “surfactant. Seeds of small-seeded species were planted about 1 cm deep; larger seeds were planted about 2.5 cm deep.”, “times.” for “times. Treated plants and controls were maintained in a greenhouse for 14 to 21 days, after which time all species were compared to controls and visually evaluated.”, “and” for “and •”"}, "[5]": {"system": "corn (ZEAMD)", "assay": "Test J preemergence mixtures of Compound 2 with crop safeners", "format": "in vivo, Zea mays cv. ‘Pioneer 33G26’", "design": "key to ZEAMD Obsd. (observed effect): observed % herbicidal effect", "description": "as §1, with “aestivum) and” for “aestivum),”, “33G26’)” for “33G26’), giant foxtail (SETFA, Setaria faberi), and Italian ryegrass (LOLMU, Lolium multiflorum)”, “surfactant.” for “surfactant. Seeds of small-seeded species were planted about 1 cm deep; larger seeds were planted about 2.5 cm deep.”, “times.” for “times. Treated plants and controls were maintained in a greenhouse for 14 to 21 days, after which time all species were compared to controls and visually evaluated.”, “and” for “and •”"}, "[6]": {"system": "Italian ryegrass (LOLMU)", "assay": "Test I preemergence mixtures of compound 2 with crop safeners", "format": "in vivo, Lolium multiflorum", "details": "alone", "description": "as §2"}, "[7]": {"details": "Cmpd 2 alone 125 g a.i./ha, scale 0 to 100, mean of four replicates"}, "[8]": {"details": "single active ingredient alone at 125 g a.i./ha"}},
  "data": [
    {"smiles": "Cc1cc[n+]([O-])c(S(=O)(=O)Cc2c(C(F)(F)F)nn(C)c2OC(F)F)c1", "note": "[Compound 2]", "values": [
      {"measurement": "Plant response rating TRZAW Obsd.", "setting": "[1]; [7]", "value": 63},
      {"measurement": "TRZAW Obsd. (observed effect)", "setting": "[1]; Test H, alone, 125 g a.i./ha", "value": 63},
      {"measurement": "Plant response rating ZEAMD Obsd.", "setting": "[2]; [7]", "value": 15},
      {"measurement": "ZEAMD Obsd. (observed effect)", "setting": "[2]; Test H, alone, 125 g a.i./ha", "value": 15},
      {"measurement": "ZEAMD Obsd. (observed effect)", "setting": "[3]; 125 g a.i./ha", "value": 69},
      {"measurement": "ZEAMD Obsd. (observed effect)", "setting": "[3]; 250 g a.i./ha", "value": 93},
      {"measurement": "TRZAW Obsd. (observed effect)", "setting": "[4]; Test J, alone, 125 g a.i./ha", "value": 100},
      {"measurement": "Observed effect (Obsd.), TRZAW", "setting": "[4]; [8]", "value": 100, "unit": "%"},
      {"measurement": "ZEAMD Obsd. (observed effect)", "setting": "[5]; Test J, alone, 125 g a.i./ha", "value": 35},
      {"measurement": "Observed effect (Obsd.), ZEAMD", "setting": "[5]; [8]", "value": 35, "unit": "%"},
      {"measurement": "LOLMU Obsd. (observed effect)", "setting": "[6]; 125 g a.i./ha", "value": 48},
      {"measurement": "LOLMU Obsd. (observed effect)", "setting": "[6]; 250 g a.i./ha", "value": 89}
    ]}
  ]
}
